Test results published in patent US9308295B2, “Oxygenated demineralized bone matrix for bone growth” (THERACELL, INC., priority 2013, dated 2016).

Legend:
[1] = system: new bone formation in subcutaneous pouch; test: Subcutaneous implantation of DBM/PFC slurry in a rat pouch, histology at 28 days; type: in vivo; settings: subcutaneous pocket, PFC with DBM
Experimental: (§1) The induction of bone growth using DBM and an oxygen carrier was previously disclosed in U.S. Publication Application No. 2012/0082704, the entire contents of which are herein incorporated by reference. In order to investigate the properties of a perfluorocarbon (PFC) oxygen carrier and to investigate the effects of DBM and a PFC in two environments having different vascularization, four different PFCs were assayed in combination with DBM. Specifically perfluorohexane, (PFC1), perfluorodecalin (PFC2), perfluorotributylamine (PFC3), and perfluoroperhydrophenanthrene (PFC4) were mixed with DBM (powder or chips) to form a DBM/PFC mixture. In some embodiments, the amount of PFC in the PFC/DBM mixture is in the range of about 32-48 weight %. Sterile saline was then added to provide a slurry with the handling characteristics of wet sand. […] This DBM/PFC slurry mixture was then applied to a subcutaneous pouch and an intramuscular pouch in the rat biceps femoris.
(§2) 0.4 ml of the perfluorocarbon was filtered through a 0.2 micron filter and added to 0.8 g of DBM (powder or chips) at the time of surgery prior to implantation in either a subcutaneous or an intramuscular pouch in the rat biceps femoris. Using a sterile spatula the mixture was gently mixed to ensure complete wetting out of the DBM powder. This was assessed visually. 1.4 ml of sterile saline was then added to the mixture and the resultant slurry was loaded into a 1 ml syringe with its end removed, resulting in a composition including PFC at about 32 to about 48% by weight. The mixture was lightly tamped and using the plunger on the syringe a 0.2 ml implant volume was defined. This was then introduced into the rat pouch. The PFCs included several perfluoroperhydrophenanthrene and perfluorodecalin that have achieved FDA clearance for use in various procedures in humans. In prior studies bone forms readily in DBM implanted in the SD […] model, and thus a human DBM was selected specifically to be from low activity level batches (1965 picograms/gram BMP2; Spec>2300) (Allosource®, Centennial, Colo.). A formulation consisting of DBM+PFC+Saline was prepared at the time of surgery. […] Perfluorohexane, (PFC1), perfluorodecalin (PFC2), and perfluoroperhydrophenanthrene (PFC4) were obtained from a GMP manufacturer and have varying levels of US Device/Drug usage. Accordingly, perfluorohexane, (PFC1), perfluorodecalin (PFC2), and perfluoroperhydrophenanthrene (PFC4) represent material and supplier suitable for use in a commercial product.
(§3) 30 SD Rats (Rattusnorvegicus, CR; NIH-RNU) received bilateral placement of test article (i.e., the DBM and PFC slurry) intramuscularly within the biceps femoris muscle or subcutaneously. Each animal acted as its own control with a saline/DBM implant in the contralateral limb. […]

[2] = system: new bone formation in intramuscular pouch in the rat biceps femoris; test: Intramuscular implantation of DBM/PFC slurry in rat biceps femoris, histology at 28 days; type: in vivo; settings: DBM/PFC slurry mixture in saline, intramuscular pocket in biceps femoris, control DBM alone in contralateral limb
Experimental: as §1, §2, §3

[3] = in vivo; cited from earlier work

Row | Compound | performance of the PFCs relative to each other in new bone formation [1] | histologic grade of new bone formation as compared to DBM alone [2] | retention in the liver [3]
1 | FC1(F)C(F)(F)C(F)(F)C2(F)C(F)(F)C(F)(F)C(F)(F)C(F)(F)C2(F)C1(F)F (stereo not drawn) [PFC2, Perfluorodecalin] | performed better than PFC1, PFC3, and PFC4 | increased histologic grade of new bone formation | not retained in the liver
2 | FC(F)(F)C(F)(F)C(F)(F)C(F)(F)N(C(F)(F)C(F)(F)C(F)(F)C(F)(F)F)C(F)(F)C(F)(F)C(F)(F)C(F)(F)F [PFC3, Perfluorotributylamine] | performed equally | increased histologic grade of new bone formation | –
3 | FC1(F)C(F)(F)C(F)(F)C2(F)C(F)(C1(F)F)C(F)(F)C(F)(F)C1(F)C(F)(F)C(F)(F)C(F)(F)C(F)(F)C12F (stereo not drawn) [PFC4, Perfluoroperhydrophenanthrene] | performed equally | increased histologic grade of new bone formation | –
4 | FC(F)(F)C(F)(F)C(F)(F)C(F)(F)C(F)(F)C(F)(F)F [PFC1, Perfluorohexane] | performed equally | increased histologic grade of new bone formation | –
